Assay results from patent US10919935B2, “Antimicrobial peptide derived from myxinidin peptide and uses thereof” (INDUSTRY-ACADEMIC COOPERATION FOUNDATION, CHOSUN UNIVERSITY, priority 2015, dated 2021).
Residues, ends and D or L forms follow the SMILES beside them.

Key:
Assay type in all cases: cell-based
[1] = system: Escherichia coli ATCC 25922
Method: (§1) To compare the antimicrobial activity of the peptide produced by the method of Example 1, the inventors of the present invention measured the growth minimum inhibitory concentration (MIC), which is minimum concentration of the peptide showing no dissociation of bacterial cells.
(§2) Specifically, the bacterial strain described in the following Table 2 was purchased and cultured in each medium to a mid-log phase. Then, after dilution to bacterial cell concentration of 2×10^5 cells/100 μl, the cells were inoculated to a microtiter plate (NUNC, USA). Thereafter, myxinidin 1, myxinidin 2, or myxinidin 3 peptides which have been synthesized in Example 1 above was diluted, 1/2 times for each, with BSA (bovine serum albumin) solution in a 96-well plate. After adding the cells to a plate, the cells were cultured for 12 hours at 37° C. By using a microtiter plate reader (Merck Elisa reader, Germany), the absorbance was measured at a wavelength of 600 nm to determine the MIC value of each bacterial strain. As a control group, myxinidin as a mother peptide was subjected to the same processes as above and the MIC value of each bacterial strain was obtained.

[2] = system: Pseudomonas aeruginosa Isolated strain 3592
Method: as §1, §2

[3] = system: Salmonella typhimurium CCARM 8009
Method: as §1, §2

[4] = system: Salmonella typhimurium KCTC 1926
Method: as §1, §2

[5] = system: Escherichia coli CCARM 1238
Method: as §1, §2

[6] = system: Escherichia coli CCARM 1229
Method: as §1, §2

[7] = system: Staphylococcus aureus ATCC 25923
Method: as §1, §2

[8] = system: Salmonella typhimurium CCARM 8013
Method: as §1, §2

[9] = system: Staphylococcus aureus CCARM 3114
Method: as §1, §2

[10] = system: Staphylococcus aureus CCARM 3709
Method: as §1, §2

[11] = system: Pseudomonas aeruginosa ATCC 27853
Method: as §1, §2

[12] = system: Pseudomonas aeruginosa Isolated strain 5018
Method: as §1, §2

[13] = system: Listeria monocytogenes KCTC 3710
Method: as §1, §2

[14] = in vitro; settings: human, NHK cells (normal human keratinocytes)
Method: To determine the cytotoxicity of the peptide produced by the method of Example 1 in normal cell line, toxicity was measured by using NHK cells (Normal Human Keratinocyte cells).
Specifically, NHK cells which have been cultured in Epilife medium with 60 μM calcium (Gibco, USA) containing 10% HKGS (Human Keratinocyte Growth Supplement) (Gibco, USA) were aliquoted in a 96-well plate to have 1×10^4 cells per well. After culturing them for 24 hours, the cells were subjected to a treatment with myxinidin, myxinidin 1, myxinidin 2, or myxinidin 3 peptide, each at concentration of 3.125, 6.25, 12.5, or 25.0 μM/well, followed by reaction for 24 hours in a 5% CO2 incubator. After the culture, a reaction solution containing 5 mg/ml MTT (Thiazolyl Blue Tetrazolium Bromide) dissolved in physiological saline (PBS) was added in an amount of 20 μl to each well and allowed to react for 4 hours. After that, the supernatant was removed, and, by dissolving MTT crystals that are formed by adding 200 μl of DMSO, the absorbance at 560 nm was measured to determine the cell survival ability.

CC[C@H](C)[C@H](NC(=O)CN)C(=O)N[C@@H](Cc1c[nH]cn1)C(=O)N[C@@H](CC(=O)O)C(=O)N[C@H](C(=O)N[C@@H](CC(C)C)C(=O)N[C@@H](CCCCN)C(=O)N[C@@H](Cc1ccc(O)cc1)C(=O)NCC(=O)N[C@@H](CCCCN)C(=O)N1CCC[C@H]1C(=O)N[C@@H](CO)C(N)=O)[C@@H](C)CC [Myxinidin, GIHDILKYGKPS-NH2] (H-GIHDILKYGKPS-NH2)
Minimum growth inhibitory concentration [1]: >32 µM
Minimum growth inhibitory concentration [2]: >32 µM
Minimum growth inhibitory concentration [3]: >32 µM
Minimum growth inhibitory concentration [4]: >32 µM
Minimum growth inhibitory concentration [5]: >32 µM
Minimum growth inhibitory concentration [6]: >32 µM
Minimum growth inhibitory concentration [7]: >32 µM
Minimum growth inhibitory concentration [8]: >32 µM
Minimum growth inhibitory concentration [9]: >32 µM
Minimum growth inhibitory concentration [10]: >32 µM
Minimum growth inhibitory concentration [11]: >32 µM
Minimum growth inhibitory concentration [12]: >32 µM
Minimum growth inhibitory concentration [13]: >32 µM
viability at 24 h, 3.125 µM [14]: 100%
viability at 24 h, 6.25 µM [14]: 98%
viability at 24 h, 12.5 µM [14]: 98%
viability at 24 h, 25 µM [14]: 95%
